Assay results as given in patent US20230203041A1, “ANTAGONISTS OF THE ADENOSINE A2A RECEPTOR” (AdoRx Therapeutics Limited, priority 2020, published 2023).
pIC50, pKi: −log10 of the molar value.

Tests used:
human PBMCs = experiment: CD3/CD28 stimulated IL-2 release NECA reversal assay in human PBMCs; format: cell-based; details: PBMC, CD3/CD28 antibody stimulated, 1 uM NECA, 24 hours, IL-2 in culture supernatant;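 note: dose-response as % inhibition where 100% equals no-NECA control wells with CD3/CD28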
Method in brief: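 PBMCs from citrated donor blood, 50,000 cells/well on plate-bound CD3 antibody (1 ug/ml), with 1 ug/ml CD28 antibody, 1 uM NECA and antagonist at 0.003-10 μM final. After 24 h at 37° C, supernatant IL-2 was measured by MSD immunoassay.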

[1] = target: T1, human Adenosine A1 receptor (Homo sapiens, UniProt P30542); experiment: Adenosine receptor TR-FRET binding assay (CA200645 displacement), A1
T1 sequence (P30542 1-326): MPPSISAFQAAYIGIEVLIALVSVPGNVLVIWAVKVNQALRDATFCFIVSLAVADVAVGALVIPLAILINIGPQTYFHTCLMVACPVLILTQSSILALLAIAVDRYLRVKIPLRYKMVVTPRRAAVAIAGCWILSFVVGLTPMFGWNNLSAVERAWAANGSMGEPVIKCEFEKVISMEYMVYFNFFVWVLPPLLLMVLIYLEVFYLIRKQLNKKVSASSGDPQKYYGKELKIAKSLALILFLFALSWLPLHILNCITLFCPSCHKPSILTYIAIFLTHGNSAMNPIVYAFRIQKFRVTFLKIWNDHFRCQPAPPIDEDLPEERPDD

[2] = target: T2, human Adenosine A2b receptor (Homo sapiens, UniProt P29275); experiment: Adenosine receptor TR-FRET binding assay (CA200645 displacement), A2b; details: 30 nM CA200645, CHO cell membranes, 2 hours at room temperature
T2 construct: expressed in transfected cells; host or cells: CHO cell membranes
T2 sequence (P29275 1-332): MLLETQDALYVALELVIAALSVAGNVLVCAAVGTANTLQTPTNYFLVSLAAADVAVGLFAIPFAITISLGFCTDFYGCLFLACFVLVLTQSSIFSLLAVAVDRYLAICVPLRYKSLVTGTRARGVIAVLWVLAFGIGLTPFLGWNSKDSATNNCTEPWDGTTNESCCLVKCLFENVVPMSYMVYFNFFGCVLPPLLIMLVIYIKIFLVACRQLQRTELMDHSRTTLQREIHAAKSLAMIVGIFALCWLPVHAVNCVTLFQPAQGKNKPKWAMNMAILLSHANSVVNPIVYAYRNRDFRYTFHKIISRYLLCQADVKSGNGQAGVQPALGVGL

[3] = target: T3, human Adenosine A2a receptor (Homo sapiens, UniProt P29274); experiment: Adenosine receptor TR-FRET binding assay (CA200645 displacement), A2a; details: 100 nM CA200645, CHO cell membranes, 2 hours at room temperature
T3 construct: expressed in transfected cells; host or cells: CHO cell membranes
T3 sequence (P29274 whole entry): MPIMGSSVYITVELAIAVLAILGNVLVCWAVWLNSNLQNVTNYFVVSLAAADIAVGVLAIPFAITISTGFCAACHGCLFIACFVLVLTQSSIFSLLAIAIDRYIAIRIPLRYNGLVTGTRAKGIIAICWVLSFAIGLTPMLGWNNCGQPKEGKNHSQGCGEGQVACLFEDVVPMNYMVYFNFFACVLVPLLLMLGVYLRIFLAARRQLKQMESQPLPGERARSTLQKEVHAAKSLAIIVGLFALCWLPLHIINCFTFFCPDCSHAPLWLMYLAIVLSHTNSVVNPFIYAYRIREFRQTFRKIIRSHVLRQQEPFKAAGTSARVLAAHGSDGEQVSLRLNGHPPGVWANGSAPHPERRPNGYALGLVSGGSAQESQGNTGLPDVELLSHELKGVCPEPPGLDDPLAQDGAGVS

[4] = target: T4, human Adenosine A3 receptor (Homo sapiens, UniProt P0DMS8); experiment: Adenosine receptor TR-FRET binding assay (CA200645 displacement), A3
T4 sequence (P0DMS8 1-318): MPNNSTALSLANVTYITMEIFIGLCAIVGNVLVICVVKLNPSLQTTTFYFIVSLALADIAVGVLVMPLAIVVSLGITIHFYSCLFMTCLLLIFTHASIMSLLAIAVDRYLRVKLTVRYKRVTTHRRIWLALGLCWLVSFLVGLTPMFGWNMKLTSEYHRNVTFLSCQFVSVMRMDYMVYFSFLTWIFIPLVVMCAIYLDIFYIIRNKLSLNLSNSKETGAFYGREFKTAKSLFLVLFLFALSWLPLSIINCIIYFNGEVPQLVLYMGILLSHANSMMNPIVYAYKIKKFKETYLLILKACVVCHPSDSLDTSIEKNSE

[5] = test system: CD8+ T cells in human whole blood; experiment: Measurement of pCREB in CD8+ T cells in human whole blood; format: cell-based; details: T-cell, 1 h; heparinised human whole blood, rolipram, 3 μM NECA, 60 min, phospho-CREB in CD8+ T cells by FACS
Method in brief: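 Heparinised human whole blood preincubated 20 min at 37 °C with serially diluted A2a antagonists plus rolipram, then stimulated 60 min with 3 μM NECA (final). After fixation and RBC lysis, permeabilized leukocytes stained for phospho-CREB and CD8; pCREB in CD8+ T cells read by flow cytometry.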

| pKi [1] | pKi [2] | pKi [3] | pKi [4] | pIC50 [5] | Compound | pIC50 (human PBMCs) |
| --- | --- | --- | --- | --- | --- | --- |
| 6.60 | 7.49 | 8.55 | < 6.00 | 5.71 | Cc1cc(-c2c(-c3cccc(C#N)c3)nn3ccc(C(=O)N[C@H]4CC[C@H](N)C4)nc23)cc(Cl)n1 [Example 7.14, 3-(2-Chloro-6-methyl-4-pyridyl)-2-(3-cyanophenyl)-N-[(1S,3S)-3-aminocyclopentyl]pyrazolo[1,5-a]pyrimidine-5-carboxamide] | 6.85 |
| 6.83 | 7.92 | 10.00 | 5.81 | 6.82 | Cc1cc(-c2c(-c3cccc(C#N)c3)nn3ccc(C(=O)NCC(C)(C)O)nc23)cc(C(F)F)n1 [Example 12.4, 2-(3-Cyanophenyl)-3-[2-(difluoromethyl)-6-methyl-4-pyridyl]-N-(2-hydroxy-2-methyl-propyl)pyrazolo[1,5-a]pyrimidine-5-carboxamide] | 8.40 |
| 6.63 | 7.72 | 9.40 | < 6.00 | 7.10 | Cc1cc(-c2c(-c3cccc(C#N)c3)nn3ccc(C(=O)NCC(C)(C)O)nc23)cc(C)n1 [Example 10, 2-(3-Cyanophenyl)-3-(2,6-dimethyl-4-pyridyl)-N-(2-hydroxy-2-methyl-propyl)pyrazolo[1,5-a]pyrimidine-5-carboxamide] | 8.22 |
| 6.53 | 7.62 | 9.70 | < 6.00 | 6.55 | Cc1cc(-c2c(-c3cccc(C#N)c3)nn3ccc(C(=O)NCC(C)(C)O)nc23)cc(Cl)n1 [Example 5.2] | 8.40 |
| 6.91 | 7.74 | 8.21 | 5.60 | 5.60 | COc1cc(-c2c(-c3cccc(C#N)c3)nn3ccc(N)nc23)cc(C)n1 [Example 26.2, 3-[5-Amino-3-(2-methoxy-6-methyl-4-pyridyl)pyrazolo[1,5-a]pyrimidin-2-yl]benzonitrile] | 7.16 |
| 7.21 | 8.52 | 8.89 | < 6.00 | 6.21 | Cc1cc(-c2c(-c3cccc(C#N)c3)nn3ccc(NCC4(O)COC4)nc23)cc(Cl)n1 [Example 2.8] | 7.39 |
| 6.44 | 7.64 | 8.36 | < 6.00 | 6.08 | Cc1cc(-c2c(-c3cccc(C#N)c3)nn3ccc(C(=O)NCC4CCNC(=O)C4)nc23)cc(C)n1 (stereo not drawn) [Example 92.4] | 7.48 |
| 6.58 | 7.74 | 8.47 | < 6.00 | 6.18 | Cc1cc(-c2c(-c3cccc(C#N)c3)nn3ccc(N[C@H](C)C(C)(C)O)nc23)cc(Cl)n1 [Example 2.20] | 7.17 |
| 6.64 | 7.22 | 8.96 | < 6.00 | 6.43 | CO[C@H]1CN(C)C[C@@H]1NC(=O)c1ccn2nc(-c3cccc(C#N)c3)c(-c3cc(C)nc(Cl)c3)c2n1 [Example 6.14, 3-(2-Chloro-6-methyl-4-pyridyl)-2-(3-cyanophenyl)-N-[(3S,4S)-4-methoxy-1-methyl-pyrrolidin-3-yl]pyrazolo[1,5-a]pyrimidine-5-carboxamide] | 7.74 |
| 7.25 | 8.70 | 9.40 | 5.61 | 6.59 | Cc1cc(-c2c(-c3cccc(C#N)c3)nn3ccc(NCC4(O)CC4)nc23)cc(Cl)n1 [Example 3.4] | 7.00 |
| 6.40 | 6.95 | 8.92 | < 6.00 | 7.52 | Cc1cc(-c2c(-c3cccc(C#N)c3C)nn3ccc(C(=O)N[C@@H](C)C(C)(C)O)nc23)cc(C)n1 [Example 104.1, 2-(3-Cyano-2-methyl-phenyl)-3-(2,6-dimethyl-4-pyridyl)-N-[(1S)-2-hydroxy-1,2-dimethyl-propyl]pyrazolo[1,5-a]pyrimidine-5-carboxamide] | 8.40 |
| 7.21 | 8.30 | 10.00 | 5.72 | 7.00 | Cc1cc(-c2c(-c3cccc(C#N)c3)nn3ccc(C(=O)NC(C)(C)CO)nc23)cc(Cl)n1 [Example 6.22, 3-(2-Chloro-6-methyl-4-pyridyl)-2-(3-cyanophenyl)-N-(2-hydroxy-1,1-dimethyl-ethyl)pyrazolo[1,5-a]pyrimidine-5-carboxamide] | 8.60 |
| 7.77 | 8.70 | 8.82 | 5.63 | 6.34 | Cc1cc(-c2c(-c3cccc(C#N)c3)nn3ccc(N)nc23)cc(C(F)F)n1 [Example 26.1, 3-[5-Amino-3-[2-(difluoromethyl)-6-methyl-4-pyridyl]pyrazolo[1,5-a]pyrimidin-2-yl]benzonitrile] | 7.49 |
| 6.53 | 7.66 | 9.52 | < 6.00 | 7.52 | Cc1cc(-c2c(-c3cccc(C#N)c3C)nn3ccc(C(=O)NCC(C)(C)O)nc23)cc(C)n1 [Example 103, 2-(3-Cyano-2-methyl-phenyl)-3-(2,6-dimethyl-4-pyridyl)-N-(2-hydroxy-2-methyl-propyl)pyrazolo[1,5-a]pyrimidine-5-carboxamide] | 7.62 |
| 6.53 | 8.05 | 9.10 | < 6.00 | 5.74 | Cc1cc(-c2c(-c3cccc(C#N)c3)nn3ccc(C(=O)NC45CC(O)(C4)C5)nc23)cc(Cl)n1 [Example 5, 3-(2-Chloro-6-methyl-4-pyridyl)-2-(3-cyanophenyl)-N-(3-hydroxy-1-bicyclo[1.1.1]pentanyl)pyrazolo[1,5-a]pyrimidine-5-carboxamide] | 7.64 |
| 6.60 | 7.77 | 10.00 | < 6.00 | 6.37 | Cc1cc(-c2c(-c3cccc(C#N)c3)nn3ccc(C(=O)NC(C)(C)C#N)nc23)cc(Cl)n1 [Example 6.21, 3-(2-Chloro-6-methyl-4-pyridyl)-N-(1-cyano-1-methyl-ethyl)-2-(3-cyanophenyl)pyrazolo[1,5-a]pyrimidine-5-carboxamide] | 8.89 |
| 7.54 | 8.30 | 9.10 | < 6.00 | 6.31 | Cc1cc(-c2c(-c3cccc(C#N)c3)nn3ccc(N/C(=N\C#N)NCC(C)(C)O)nc23)cc(Cl)n1 [Example 32.2, 1-[3-(2-Chloro-6-methyl-4-pyridyl)-2-(3-cyanophenyl)pyrazolo[1,5-a]pyrimidin-5-yl]-2-cyano-3-(2-hydroxy-2-methyl-propyl)quanidine] | 7.80 |
| 7.38 | 7.28 | 9.22 | < 6.00 | 6.41 | Cc1cc(-c2c(-c3cccc(C#N)c3)nn3ccc(NCC(C)(C)O)nc23)cc(C(F)F)n1 [Example 23, 3-[3-[2-(Difluoromethyl)-6-methyl-4-pyridyl]-5-[(2-hydroxy-2-methyl-propyl)amino]pyrazolo[1,5-a]pyrimidin-2-yl]benzonitrile] | 7.70 |
| 6.55 | 6.77 | 8.72 | < 6.00 | 6.59 | Cc1cc(-c2c(-c3cccc(C#N)c3)nn3ccc(NCC(C)(C)O)nc23)cc(C)n1 [Example 23.2] | 7.60 |
